Source: article PMC3281693 (The Journal of Biological Chemistry, 2011)

T1: Rpm1-NBARC (Arabidopsis thaliana, UniProt Q39214)
T1 sequence (Q39214 177-519): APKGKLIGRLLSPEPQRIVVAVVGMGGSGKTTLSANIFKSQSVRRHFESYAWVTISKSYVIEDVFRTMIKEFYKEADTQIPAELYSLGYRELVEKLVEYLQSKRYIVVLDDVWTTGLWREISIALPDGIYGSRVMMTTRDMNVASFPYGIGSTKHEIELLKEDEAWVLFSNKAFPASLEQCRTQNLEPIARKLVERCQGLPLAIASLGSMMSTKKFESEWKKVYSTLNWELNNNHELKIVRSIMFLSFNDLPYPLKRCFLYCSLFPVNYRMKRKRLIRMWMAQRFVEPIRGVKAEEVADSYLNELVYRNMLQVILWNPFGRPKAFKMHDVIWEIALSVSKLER


Legend:
Rpm1-NBARC = molecular target: T1, Rpm1-NBARC; conditions: 100 μM ATP, 10 nM protein; MgCl2, pH 7.5
cross-linking = molecular target: the molecule itself; assay: cross-linking

Molecule | nucleotide phosphatase assay, HPLC (Rpm1-NBARC) | stoichiometry N (cross-linking)
Nc1ncnc2c1ncn2[C@@H]1O[C@H](COP(=O)(O)OP(=O)(O)OP(=O)(O)O)[C@@H](O)[C@H]1O [ATP] | Rpm1-NBARC catalyzed the production of Ado from ATP and ADP | –
E. coli catabolite-activated protein (CAP) (natural protein, UniProt P0ACJ8 1-210, looked up) MVLGKPQTDPTLEWFLSHCHIHKYPSKSTLIHQGEKAETLYYIVKGSVAVLIKDEEGKEMILSYLNQGDFIGELGLFEEGQERSAWVRAKTACEVAEISYKKFRQLIQVNPDILMRLSAQMARRLQVTSEKVGNLAFLDVTGRIAQTLLNLAKQPDAMTHPDGMQIKITRQEIGQIVGCSRETVGRILKMLEDQNLISAHGKTIVVYGTR | – | 2
